Test [1] deals with T1, Serotonin (5-Hydroxytryptamine) 5-HT7 (Homo sapiens, UniProt P34969).
T1 construct: Eurofins CEREP (contract screen)
The test can be described thus: Eurofins CEREP Screen. The format is binding.

A further test has as its target Adrenergic α2A (Homo sapiens, UniProt P08913). The test can be described thus: biochemical.
For another test, the system named is 468 kinases. As to the kind of experiment: KINOMEscan profile, whole panel. As to conditions: 10 μM. The format is binding.

T1 sequence (P34969 whole entry): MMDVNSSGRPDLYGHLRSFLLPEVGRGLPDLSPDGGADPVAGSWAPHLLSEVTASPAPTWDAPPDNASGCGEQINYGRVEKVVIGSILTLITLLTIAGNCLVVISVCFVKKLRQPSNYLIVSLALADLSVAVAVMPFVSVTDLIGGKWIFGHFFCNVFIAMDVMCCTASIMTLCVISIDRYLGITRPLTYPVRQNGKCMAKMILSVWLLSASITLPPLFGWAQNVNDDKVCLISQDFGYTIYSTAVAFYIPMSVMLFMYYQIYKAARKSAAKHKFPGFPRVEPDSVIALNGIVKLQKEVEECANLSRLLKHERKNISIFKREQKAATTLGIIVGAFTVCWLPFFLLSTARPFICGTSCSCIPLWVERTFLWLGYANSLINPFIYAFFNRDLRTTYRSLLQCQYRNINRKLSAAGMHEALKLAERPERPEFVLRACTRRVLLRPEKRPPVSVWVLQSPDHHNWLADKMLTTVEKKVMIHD
Sequence of Adrenergic α2A (P08913 whole entry): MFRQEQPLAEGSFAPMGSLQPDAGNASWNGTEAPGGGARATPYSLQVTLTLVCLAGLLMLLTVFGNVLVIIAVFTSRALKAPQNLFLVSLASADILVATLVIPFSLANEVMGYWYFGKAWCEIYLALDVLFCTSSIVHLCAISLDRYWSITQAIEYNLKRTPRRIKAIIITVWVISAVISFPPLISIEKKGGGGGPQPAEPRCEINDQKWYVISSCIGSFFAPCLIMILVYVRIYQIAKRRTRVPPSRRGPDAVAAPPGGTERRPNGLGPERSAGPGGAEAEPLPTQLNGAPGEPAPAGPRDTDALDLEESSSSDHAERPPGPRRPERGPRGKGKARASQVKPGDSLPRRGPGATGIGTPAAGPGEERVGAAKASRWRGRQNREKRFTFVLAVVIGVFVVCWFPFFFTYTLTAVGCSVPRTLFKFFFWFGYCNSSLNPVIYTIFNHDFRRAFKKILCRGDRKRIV

Consider `COc1ccc2c(c1)[nH]c1c(C)nccc12` [Harmine, reference compound], for which the figures for the inhibition at 10 µM (in test [1]; against Adrenergic α2A) were 30% and 59%, respectively. Also, the “kinases inhibited (<20% activity remaining) in addition to DYRK1A” value in the test with 468 kinases is on record as 16.

One may read the inhibition as how much of the control response was suppressed.

The values are drawn from patent publication US12421232B2, “Kinase inhibitor compounds and compositions and methods of use” (ICAHN SCHOOL OF MEDICINE AT MOUNT SINAI, priority 2018, dated 2025).
